According to patent US11376294B2, “Mangiferin-containing compositions for improving sports performance” (priority 2016, dated 2022):

How the values were obtained:
Fisher 344 rats [1] = experiment: EEG (electropharmacogram) in freely moving rats, Example 1; type: in vivo, rat; details: oral gavage, 5-65 min after administration, FIG. 1
Protocol: Fisher 344 rats (11 months of age and day-night converted, weight about 350-400 g, provided by Charles River Laboratories, D-97633, Sulzfeld) were used in a series of experiments on the effects of various herbal and pharmaceutical products on central nervous system activity. Products were provided to the test subjects orally (gavage).
EEG signals were recorded by telemetry from 4 implanted electrodes in the frontal cortex, hippocampus and striatum of freely moving rats from inside a totally copper shielded room. Signals were collected in sweeps of 4 second duration and Fast Fourier transformed using a Hanning window. EEG signals were recorded over a period starting 5 minutes after administration of the test substances, and ending 65 minutes after administration of the test substances. Sampling frequency was 512 Hz. […] In an off-line procedure the spectra were averaged to give longer periods for further analysis and data presentation. Spectral activity within the frontal cortex, hippocampus, striatum and reticular formation was recorded.

Fisher 344 rats [2] = experiment: EEG in freely moving rats, two recording periods, Example 2; type: in vivo, rat; details: oral, FIG. 2B/2C, period not separated
Protocol: Products were provided to the test subjects orally (gavage).
EEG signals were recorded by telemetry from 4 implanted electrodes in the frontal cortex, hippocampus and striatum of freely moving rats from inside a totally copper shielded room.

brain wave activity = experiment: General statements on CNS activity, equivalence, onset and duration after ingestion; type: in vivo
acetylcholinesterase = acetylcholinesterase (Homo sapiens, UniProt P22303); details: cited from earlier work
MAOA = target: T1, MAOA (Homo sapiens, UniProt P21397); details: said to underlie anti-depressant-like effect; cited from earlier work
T1 sequence (P21397 1-527): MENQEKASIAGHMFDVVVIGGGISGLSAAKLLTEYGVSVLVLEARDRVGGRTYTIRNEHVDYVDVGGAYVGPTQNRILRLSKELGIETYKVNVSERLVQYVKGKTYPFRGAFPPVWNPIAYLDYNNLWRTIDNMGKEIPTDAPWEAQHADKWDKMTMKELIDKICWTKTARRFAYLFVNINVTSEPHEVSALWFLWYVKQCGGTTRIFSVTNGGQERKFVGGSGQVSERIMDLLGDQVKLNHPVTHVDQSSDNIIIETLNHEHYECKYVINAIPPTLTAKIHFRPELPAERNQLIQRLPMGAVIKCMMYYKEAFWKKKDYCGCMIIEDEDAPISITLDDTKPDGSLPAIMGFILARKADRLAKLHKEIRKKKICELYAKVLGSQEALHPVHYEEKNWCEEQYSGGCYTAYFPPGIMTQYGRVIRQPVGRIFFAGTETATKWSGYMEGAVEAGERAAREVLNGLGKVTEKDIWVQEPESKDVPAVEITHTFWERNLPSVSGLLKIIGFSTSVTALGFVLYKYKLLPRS

Fisher 344 rats [3] = experiment: EEG in rats administered mango leaf extract and/or caffeine, Example 5; type: in vivo, rat; details: 0.50 mg/kg oral
Text: After automatic artefact rejection, signals were collected in sweeps of 4 s duration and Fast Fourier transformed using a Hanning window. […] Nine adult male Fisher 344 rats (5 months of age and day-night converted, weight about 350-400 g, were implanted with electrodes into the brain and were given two weeks for recovery from surgery. Three animals dropped the implant after performance of a placebo series. […] A crossover design with at least three days of drug holidays in between drug administrations was used. […] The animals were dosed orally at a constant volume of 1.0 ml/kg per kg body weight. The dosage administered to each animal was determined every day by the weight of that animal at the time of administration. Data were averaged from 5-9 animals, and are expressed as mean values±S.E.M.

[4] = system: pyramidal cells in hippocampus slices of rat brains; experiment: Ex vivo population spikes in hippocampal slice preparation, Example 6
Protocol: Hippocampus slices of rat brains were tested. After daily administration of trial medication for one week, 4 animals were sacrificed under deep anesthesia and the hippocampus was removed and chopped by a vibrating razor blade to give 6 slices of about […] thickness per animal. Slices were taken one day after the last treatment. After adaptation to artificial cerebrospinal fluid for one hour, slices were transferred to an incubation chamber and superfused with cerebrospinal fluid at 35° C. Schaffer collaterals are branches extending from the axons of CA3 pyramidal cells in the hippocampus. Schaffer collaterals project to the CA1 area of the hippocampus, and are an integral part of memory formation. The Schaffer Collaterals were stimulated by single stimuli or theta burst stimuli, where theta burst stimuli are short bursts of stimulation at high frequencies, applied 5 times per second.

acetylcholinesterase, sequence (P22303 32-614, species assumed): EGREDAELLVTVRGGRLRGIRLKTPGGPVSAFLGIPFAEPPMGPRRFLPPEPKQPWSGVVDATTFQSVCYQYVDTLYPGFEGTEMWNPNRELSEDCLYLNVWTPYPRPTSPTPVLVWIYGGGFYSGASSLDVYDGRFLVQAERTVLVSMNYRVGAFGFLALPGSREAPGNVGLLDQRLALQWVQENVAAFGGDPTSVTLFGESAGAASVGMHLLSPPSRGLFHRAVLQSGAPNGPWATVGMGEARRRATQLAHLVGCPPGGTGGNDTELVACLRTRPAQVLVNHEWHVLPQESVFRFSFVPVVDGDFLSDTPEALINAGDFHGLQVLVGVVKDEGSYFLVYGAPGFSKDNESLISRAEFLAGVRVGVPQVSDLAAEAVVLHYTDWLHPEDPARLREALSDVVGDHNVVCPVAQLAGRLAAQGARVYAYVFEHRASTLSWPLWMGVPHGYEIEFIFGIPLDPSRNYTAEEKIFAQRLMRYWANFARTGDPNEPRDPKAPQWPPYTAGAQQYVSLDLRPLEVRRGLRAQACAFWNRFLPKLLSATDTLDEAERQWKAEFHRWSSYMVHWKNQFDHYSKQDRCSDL

Row | Structure (SMILES) | CNS profile (EEG) compared with reference substances (Fisher 344 rats [1]) | gamma wave activity in the striatum (Fisher 344 rats [2]) | caffeine-type side-effects (nausea, fast or irregular pulse, irritability, loss of concentration) (brain wave activity; even at high servings or doses) | dose dependence of CNS stimulation beyond a threshold (brain wave activity; in vivo) | calming activity when ingested (brain wave activity; unlike caffeine) | acetylcholinesterase inhibition (acetylcholinesterase) | MAOA inhibition (MAOA) | delta waves in the striatum (Fisher 344 rats [3]; FIG. 6) | delta, theta and beta power in the hippocampus (Fisher 344 rats [3]; FIG. 6) | delta power in the frontal cortex (Fisher 344 rats [3]; FIG. 6, p<0.1) | delta power in the frontal cortex and reticular formation (Fisher 344 rats [3]; from the second hour after administration on) | alpha2 power (Fisher 344 rats [3]; last hour, p<0.05 in the reticular formation) | Amplitude (population spike), Single Stimulation ([4]; SS, slices after one week daily dosing, caffeine 0.5 mg/kg, mango leaf extract 25 mg/kg) | Amplitude (population spike), Theta Burst Stimulation ([4]; TBS, slices after one week daily dosing, caffeine 0.5 mg/kg, mango leaf extract 25 mg/kg) | pyramidal cell activity ([4]; Table 1 and FIG. 11)
1 | O=c1c2cc(O)c(O)cc2oc2cc(O)c([C@@H]3O[C@H](CO)[C@@H](O)[C@H](O)[C@H]3O)c(O)c12 [Mangiferin] | surprisingly similar to the CNS profiles of reference caffeine, citicolin and Guarana | not observed | none of the well-known side-effects | plateau effect | calming, de-stressing activity | acetylcholinesterase inhibiting activity | inhibition of MAOA | – | – | – | – | – | – | – | –
2 | Cn1c(=O)c2c(ncn2C)n(C)c1=O [Caffeine] | – | – | – | – | – | – | – | minor but statistically conspicuous decrease | statistically significant attenuation | statistically conspicuous attenuation | statistically significant increases of delta power | increases of alpha2 power were observed except for the striatum | 1.3 (SS) mv | 3.1 (TBS) mv | significantly smaller effect on such activity than mango leaf extract
